# Reference: patent US11090266B2, “Nanoliposomal c-MYC-siRNA inhibits in vivo tumor growth of cisplatin-resistant ovarian cancer” (priority 2014, dated 2021)
# Tested on: A2780CP20 tumors
# Test: Therapeutic efficacy in A2780CP20 tumor-bearing nude mice
# Type: in vivo
# Conditions: siRNA-DOPC 5 μg siRNA/injection, CIS 160 μg/injection, i.p. once a week for 4 weeks
# Method: c-MYC was overexpressed in cells with low c-MYC levels (A2780) (FIG. 16A). The rate of cell proliferation of these cells were higher compared with empty vectors (FIG. 16B). The effect of nanoliposomal-c-MYC-siRNA was tested on target depletion, and therapy efficacy. Nude mice were injected intraperitoneally (i.p.) with A2780CP20 cells. A nude mice-bearing tumors were injected i.p. with nanoliposomal siRNAs. Seven days post-injection, mice were sacrificed and the tumors were dissected. As shown is FIG. 18A, the anti-tumor effects of nanoliposomal-c-MYC-siRNA as compared to C-siRNA were tested in tumor-bearing mice. […] All nanoliposomal-c-MYC-siRNAs and CIS treatments were injected i.p. once a week for 4 weeks. In vitro experiments were repeated in HEYA8 ovarian cancer cells which express high c-MYC levels (FIG. 19A-19D). Additional liposomal c-MYc-siRNA formulation was performed (FIG. 20A-20D) and FIGS. 22 and 23). […]
# As shown in FIG. 16A-16B the directed effect effects of c-MYC overexpression in ovarian cancer cells. […] Cell viability was calculated. […]
# DOPC-PEG-cholesterol-based nanoliposomes were used for in vivo c-MYC-siRNA delivery. First, we assessed whether the c-MYC silencing in vivo. […] Tumor weight and number of nodules were assessed in five treatment groups (10 mice each): (a) C-siRNA, (b) cisplatin (CIS) alone, (c) c-MYC-siRNA, (d) C-siRNA plus CIS, and (e) c-MYC-siRNA plus CIS. […]
smiles,measurement,value
"N.N.[Cl][Pt][Cl] [CIS, cisplatin]",tumor weight / tumor growth,did not induce a significant effect on tumor growth
